From patent US7417054B2, “Naphthyridine compounds” (Janssen Pharmaceutica N.V., priority 2005, dated 2008)
Where a name gives a salt, the structure may show the parent alone. Read-outs that look alike come from different tables or passages of the source.

Key:
human H3 receptor = biological target: T1, human H3 receptor (Homo sapiens, UniProt Q9Y5N1); assay: H3 receptor binding, N-[3H]-α-methylhistamine displacement on SK-N-MC cell membranes; conditions: cloned human H3 receptor in SK-N-MC cell membranes; 0.8 nM N-[3H]-α-methylhistamine; 60 min at 25° C.
T1 construct: expressed in transfected cells; host or cells: SK-N-MC cells
T1 sequence (Q9Y5N1 whole entry): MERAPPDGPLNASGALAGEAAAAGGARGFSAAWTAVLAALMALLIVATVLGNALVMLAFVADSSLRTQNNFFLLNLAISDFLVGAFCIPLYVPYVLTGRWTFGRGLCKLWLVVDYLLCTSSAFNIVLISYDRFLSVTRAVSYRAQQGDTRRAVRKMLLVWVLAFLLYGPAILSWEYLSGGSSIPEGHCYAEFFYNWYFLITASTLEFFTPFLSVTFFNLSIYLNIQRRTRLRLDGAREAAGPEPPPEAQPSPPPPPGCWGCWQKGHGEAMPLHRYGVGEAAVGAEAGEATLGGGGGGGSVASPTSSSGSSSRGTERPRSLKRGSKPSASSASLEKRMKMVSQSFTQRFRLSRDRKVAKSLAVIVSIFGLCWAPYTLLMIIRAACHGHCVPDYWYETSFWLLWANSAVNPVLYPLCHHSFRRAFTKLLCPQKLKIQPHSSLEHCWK

human SERT = biological target: T2, human SERT (Homo sapiens, UniProt P31645); assay: Human SERT binding, 3H-citalopram displacement on HEK293 membranes; conditions: HEK293 membranes expressing the human SERT, rt for 1 h
T2 construct: expressed in transfected cells; host or cells: HEK293
T2 sequence (P31645 whole entry): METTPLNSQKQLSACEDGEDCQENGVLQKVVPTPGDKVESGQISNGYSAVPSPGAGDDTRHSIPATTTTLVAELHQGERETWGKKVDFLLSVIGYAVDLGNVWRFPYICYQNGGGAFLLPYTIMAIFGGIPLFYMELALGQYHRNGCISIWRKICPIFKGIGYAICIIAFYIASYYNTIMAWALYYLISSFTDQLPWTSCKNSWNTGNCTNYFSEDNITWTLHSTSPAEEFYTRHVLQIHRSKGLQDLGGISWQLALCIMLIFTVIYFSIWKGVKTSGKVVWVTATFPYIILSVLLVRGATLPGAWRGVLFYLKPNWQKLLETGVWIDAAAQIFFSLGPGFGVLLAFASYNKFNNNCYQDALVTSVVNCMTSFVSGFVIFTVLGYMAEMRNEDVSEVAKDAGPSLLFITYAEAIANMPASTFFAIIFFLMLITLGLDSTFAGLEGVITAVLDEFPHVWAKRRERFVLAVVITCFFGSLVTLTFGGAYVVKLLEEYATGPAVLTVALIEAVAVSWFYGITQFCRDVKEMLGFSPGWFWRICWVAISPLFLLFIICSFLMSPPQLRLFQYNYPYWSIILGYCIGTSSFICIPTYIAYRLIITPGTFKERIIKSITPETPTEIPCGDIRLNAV
Procedure: Homogenized HEK293 (Human Embryonic Kidney) membranes expressing the human SERT were incubated with ^3H-citalopram (SERT) at rt for 1 h in 50 mM Tris, 120 mM NaCl, 5 mM KCl (pH 7.4). […] The membranes were washed and the radioactivity was counted as above.

Rat SERT = Rat SERT (Rattus norvegicus, UniProt P31652); assay: Rat brain SERT binding, [3H]-Citalopram displacement on rat brain membranes
Chain of Rat SERT (P31652 whole entry): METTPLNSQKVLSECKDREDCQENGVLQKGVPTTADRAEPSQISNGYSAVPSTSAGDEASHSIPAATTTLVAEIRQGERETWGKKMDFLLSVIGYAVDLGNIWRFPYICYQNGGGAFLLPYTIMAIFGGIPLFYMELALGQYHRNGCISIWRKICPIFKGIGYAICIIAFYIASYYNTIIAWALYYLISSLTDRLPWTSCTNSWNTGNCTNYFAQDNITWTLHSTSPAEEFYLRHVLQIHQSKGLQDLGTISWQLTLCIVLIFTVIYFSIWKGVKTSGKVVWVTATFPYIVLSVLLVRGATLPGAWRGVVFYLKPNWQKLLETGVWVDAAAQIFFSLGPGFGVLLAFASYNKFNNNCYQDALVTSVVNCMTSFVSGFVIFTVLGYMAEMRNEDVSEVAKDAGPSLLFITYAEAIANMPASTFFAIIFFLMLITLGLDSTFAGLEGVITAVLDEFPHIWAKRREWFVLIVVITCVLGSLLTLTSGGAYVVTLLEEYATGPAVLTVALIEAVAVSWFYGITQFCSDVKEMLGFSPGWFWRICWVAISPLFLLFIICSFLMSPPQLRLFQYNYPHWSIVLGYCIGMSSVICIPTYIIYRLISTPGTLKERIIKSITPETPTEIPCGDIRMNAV
Procedure: The supernatant was removed and re-centrifuged at 15,000 rpm for 30 min. […] Membranes were incubated with 0.6 nM [^3H]-Citalopram plus/minus test compounds for 60 min at 25° C. and harvested by rapid filtration over GF/C glass fiber filters (pretreated with 0.3% polyethylenimine) followed by four washes with ice-cold buffer.

[1] = read-out: Rat SERT Ki, rat brain membranes without cerebellum, 0.6 nM [3H]-Citalopram, 60 min at 25° C.
[2] = Rat SERT Ki (nM), rat brain membranes without cerebellum, 0.6 nM [3H]-Citalopram, 60 min at 25° C.

| Ki (human H3 receptor) | Ki (human SERT) | Ki (Rat SERT) | Compound | Ki (Rat SERT; [1]) | Ki (Rat SERT; [2]) |
| --- | --- | --- | --- | --- | --- |
| 1 nM | 7 nM | 4 nM | COc1ccc(C2CN(C)Cc3nc(OCCCN4CCCCC4)ccc32)cc1 (centres unmarked) [Example 50, 5-(4-Methoxy-phenyl)-7-methyl-2-(3-piperidin-1-yl-propoxy)-5,6,7,8-tetrahydro-[1,7]naphthyridine] |  |  |
| 78 nM | 2000 nM | 623 nM | COc1ccc(C2CN(C)Cc3cc(CCCCN4CCCCC4)cnc32)cc1 (centres unmarked) [Example 49, 8-(4-Methoxy-phenyl)-6-methyl-3-(4-piperidin-1-yl-butyl)-5,6,7,8-tetrahydro-[1,6]-naphthyridine trifluoroacetic acid salt] |  |  |
| 13 nM | 66 nM |  | CCN(CC)CCCOc1cc2c(cn1)C(c1ccc(OC)cc1)CN(C)C2 (centres unmarked) [Example 29, Diethyl-{3-[8-(4-methoxy-phenyl)-6-methyl-5,6,7,8-tetrahydro-[2,6]naphthyridin-3-yloxy]-propyl}-amine] | 19 nM |  |
| 7 nM | 147 nM | 26 nM | CN1Cc2cc(OCCCN3CCCCC3)ncc2C(c2ccc(F)c(Cl)c2)C1 (centres unmarked) [Example 35, 4-(3-Chloro-4-fluoro-phenyl)-2-methyl-7-(3-piperidin-1-yl-propoxy)-1,2,3,4-tetrahydro-[2,6]naphthyridine] |  |  |
| 3 nM |  |  | COc1ccc(C2CNCc3cc(OCCC4CCCN4C)ncc32)cc1 (centres unmarked) [Example 9, 4-(4-Methoxy-phenyl)-7-[2-(1-methyl-pyrrolidin-2-yl)-ethoxy]-1,2,3,4-tetrahydro-[2,6]-naphthyridine] |  | 43 nM |
| 5 nM | 1140 nM |  | CN1Cc2cc(OCCCN3CCCCC3)ncc2C(c2ccccc2)C1 (centres unmarked) [Example 3, 2-Methyl-4-phenyl-7-(3-piperidin-1-yl-propoxy)-1,2,3,4-tetrahydro-[2,6]-naphthyridine] | 569 nM |  |
| 264 nM |  |  | COc1ccc(C2CN(C)Cc3cc(OCCCN4CCC(F)(F)CC4)ncc32)cc1 (centres unmarked) [Example 28, 7-[3-(4,4-Difluoro-piperidin-1-yl)-propoxy]-4-(4-methoxy-phenyl)-2-methyl-1,2,3,4-tetrahydro-[2,6]naphthyridine] |  | 129 nM |
| 90 nM | 70 nM |  | COc1ccc(C2CN(C)Cc3cc(OCCCN4CCOCC4)ncc32)cc1 (centres unmarked) [Example 12, 4-(4-Methoxy-phenyl)-2-methyl-7-(3-morpholin-4-yl-propoxy)-1,2,3,4-tetrahydro-[2,6]-naphthyridine] | 29 nM |  |
| 208 nM | 51 nM | 56 nM | COc1ccc(C2CNCc3cc(OCCCN4CCC(F)(F)CC4)ncc32)cc1 (centres unmarked) [Example 19, 7-[3-(4,4-Difluoro-piperidin-1-yl)-propoxy]-4-(4-methoxy-phenyl)-1,2,3,4-tetrahydro-[2,6]-naphthyridine] |  |  |
| 44 nM | 611 nM |  | Clc1ccc(C2CNCc3cc(OCCCN4CCOCC4)ncc32)cc1Cl (centres unmarked) [Example 26, 4-(3,4-Dichloro-phenyl)-7-(3-morpholin-4-yl-propoxy)-1,2,3,4-tetrahydro-[2,6]-naphthyridine] |  | 64 nM |
| 16 nM | 30 nM |  | CCN(CC)CCCOc1cc2c(cn1)C(c1ccc(Cl)c(Cl)c1)CN(C)C2 (centres unmarked) [Example 30, {3-[8-(3,4-Dichloro-phenyl)-6-methyl-5,6,7,8-tetrahydro-[2,6]naphthyridin-3-yloxy]-propyl}-diethyl-amine] | 33 nM |  |
|  |  | 106 nM | COc1ccc(C2CNCc3cc(OC4CCNCC4)ncc32)cc1 (centres unmarked) [Example 42, 4-(4-Methoxy-phenyl)-7-(piperidin-4-yloxy)-1,2,3,4-tetrahydro-[2,6]naphthyridine] |  |  |
| 43 nM | 189 nM |  | COc1ccc(C2CNCc3cc(OCCCN4CCOCC4)ncc32)cc1 (centres unmarked) [Example 11, 4-(4-Methoxy-phenyl)-7-(3-morpholin-4-yl-propoxy)-1,2,3,4-tetrahydro-[2,6]-naphthyridine] | 53 nM |  |
| 18 nM | 70 nM | 74 nM | FC(F)(F)Oc1ccc(C2CNCc3cc(OCCCN4CCCCC4)ncc32)cc1 (centres unmarked) [Example 44, 7-(3-Piperidin-1-yl-propoxy)-4-(4-trifluoromethoxy-phenyl)-1,2,3,4-tetrahydro-[2,6]naphthyridine] |  |  |
| 4 nM |  | 20 nM | COc1ccc(C2CN(C)Cc3cc(OCCC4CCCN4C)ncc32)cc1 (centres unmarked) [Example 10, 4-(4-Methoxy-phenyl)-2-methyl-7-[2-(1-methyl-pyrrolidin-2-yl)-ethoxy]-1,2,3,4-tetrahydro-[2,6]-naphthyridine] |  |  |
| 796 nM | 1020 nM | 137 nM | COc1ccc(C2CN(C)Cc3cc(OC4CCN(C)CC4)ncc32)cc1 (centres unmarked) [Example 43, 4-(4-Methoxy-phenyl)-2-methyl-7-(1-methyl-piperidin-4-yloxy)-1,2,3,4-tetrahydro-[2,6]naphthyridine] |  |  |
| 15 nM | 106 nM |  | CN1Cc2cc(OCCCN3CCCCC3)ncc2C(c2ccc(Cl)cc2)C1 (centres unmarked) [Example 36, 4-(4-Chloro-phenyl)-2-methyl-7-(3-piperidin-1-yl-propoxy)-1,2,3,4-tetrahydro-[2,6]naphthyridine] | 22 nM |  |
|  |  | 87 nM | COc1ccc(C2CNCc3cc(OC4CCN(Cc5ccccc5)CC4)ncc32)cc1 (centres unmarked) [Example 22, 7-(1-Benzyl-piperidin-4-yloxy)-4-(4-methoxy-phenyl)-1,2,3,4-tetrahydro-[2,6]-naphthyridine] |  |  |
| 45 nM | 2000 nM | 1000 nM | COc1ccc(C2CN(C)Cc3cc(C#CCCN4CCCCC4)cnc32)cc1 (centres unmarked) [Example 48, 8-(4-Methoxy-phenyl)-6-methyl-3-(4-piperidin-1-yl-but-1-ynyl)-5,6,7,8-tetrahydro-[1,6]naphthyridine trifluoroacetic acid salt] |  |  |
| 11 nM | 32 nM | 21 nM | COc1ccc(C2CN(C)Cc3nc(C#CCCN4CCCCC4)ccc32)cc1 (centres unmarked) [Example 51, 5-(4-Methoxy-phenyl)-7-methyl-2-(4-piperidin-1-yl-but-1-ynyl)-5,6,7,8-tetrahydro-[1,7]naphthyridine] |  |  |

| Compound | Ki (human H3 receptor) | Ki (human SERT) | Ki (Rat SERT) | Ki (Rat SERT; [1]) | Ki (Rat SERT; [2]) |
| --- | --- | --- | --- | --- | --- |
| CC(C)N1CCC(COc2cc3c(cn2)C(c2ccc(Cl)c(Cl)c2)CN(C)C3)CC1 (centres unmarked) [Example 41, 4-(3,4-Dichloro-phenyl)-7-(1-isopropyl-piperidin-4-ylmethoxy)-2-methyl-1,2,3,4-tetrahydro-[2,6]naphthyridine] | 13 nM | 31 nM |  | 23 nM |  |
| CCN(CC)CCCOc1cc2c(cn1)C(c1ccc(OC)cc1)CNC2 (centres unmarked) [Example 20, Diethyl-{3-[8-(4-methoxy-phenyl)-5,6,7,8-tetrahydro-[2,6]naphthyridin-3-yloxy]-propyl}-amine] | 23 nM | 226 nM |  | 129 nM |  |
| COc1ccc(C2CN(C)Cc3cc(OCCCN4CCCCC4)ncc32)cc1 (centres unmarked) [Example 8, 4-(4-Methoxy-phenyl)-2-methyl-7-(3-piperidin-1-yl-propoxy)-1,2,3,4-tetrahydro-[2,6]-naphthyridine] | 12 nM | 107 nM |  | 34 nM |  |
| Clc1ccc(C2CNCc3cc(OCCCN4CCCCC4)ncc32)cc1Cl (single isomer, unassigned; enantiomer b) [Example 46, 4-(3,4-Dichloro-phenyl)-7-(3-piperidin-1-yl-propoxy)-1,2,3,4-tetrahydro-[2,6]-naphthyridine (enantiomer B)] | 13 nM | 16 nM |  |  | 17 nM |
| CN1Cc2cc(OCCCN3CCCCC3)ncc2C(c2ccc(Cl)c(Cl)c2)C1 (single isomer, unassigned; enantiomer a) [Example 38, 4-(3,4-Dichloro-phenyl)-2-methyl-7-(3-piperidin-1-yl-propoxy)-1,2,3,4-tetrahydro-[2,6]-naphthyridine (enantiomer A)] | 50 nM |  |  |  | 56 nM |
| CN1Cc2cc(OCCCN3CCCCC3)ncc2C(c2cccc(Cl)c2)C1 (centres unmarked) [Example 27, 4-(3-Chloro-phenyl)-2-methyl-7-(3-piperidin-1-yl-propoxy)-1,2,3,4-tetrahydro-[2,6]-naphthyridine] | 7 nM | 826 nM |  | 144 nM |  |
| CN1Cc2cc(OCCCN3CCCCC3)ncc2C(c2ccc(Cl)c(Cl)c2)C1 (single isomer, unassigned; enantiomer b) [Example 39, 4-(3,4-Dichloro-phenyl)-2-methyl-7-(3-piperidin-1-yl-propoxy)-1,2,3,4-tetrahydro-[2,6]-naphthyridine (enantiomer B)] | 42 nM |  |  |  | 233 nM |
| Clc1ccc(C2CNCc3cc(OCCCN4CCCCC4)ncc32)cc1Cl (single isomer, unassigned; enantiomer a) [Example 45, 4-(3,4-Dichloro-phenyl)-7-(3-piperidin-1-yl-propoxy)-1,2,3,4-tetrahydro-[2,6]-naphthyridine (enantiomer A)] | 4 nM |  | 101 nM |  |  |
| COc1cccc(C2CN(C)Cc3cc(OCCCN4CCCCC4)ncc32)c1 (centres unmarked) [Example 14, 4-(3-Methoxy-phenyl)-2-methyl-7-(3-piperidin-1-yl-propoxy)-1,2,3,4-tetrahydro-[2,6]-naphthyridine] | 8 nM | 303 nM |  | 59 nM |  |
| COc1ccc(C2CN(C)Cc3cc(OCC4CCN(C(C)C)CC4)ncc32)cc1 (centres unmarked) [Example 40, 7-(1-Isopropyl-piperidin-4-ylmethoxy)-4-(4-methoxy-phenyl)-2-methyl-1,2,3,4-tetrahydro-[2,6]-naphthyridine] | 13 nM | 62 nM |  | 45 nM |  |
